Experimental findings from patent US10336732B2, “1-heterocyclyl isochromanyl compounds and analogs for treating CNS disorders” (Sunovion Pharmaceuticals Inc., priority 2015, dated 2019) are described below.

The subject of the test is mice. The test is described as follows: Neuropharmacological assay (SmartCube), behavioral signature of compound-treated mice. Type of test: in vivo. The note with it: i.p. 15 min before behavioral test, most efficacious dose(s) of 3 doses. The source says: Neurosci. […] As reported in Roberds, because psychiatric diseases generally result from disorders of cell-cell communication or circuitry, intact systems are useful in detecting improvement in disease-relevant endpoints. These endpoints are typically behavioral in nature, often requiring human observation and interpretation. To facilitate testing of multiple compounds for behavioral effects relevant to psychiatric disease, PsychoGenics, Inc. (Tarrytown, N.Y., “PGI”) developed SmartCube™, an automated system in which behaviors of compound-treated mice are captured by digital video and analyzed with computer algorithms. […] PGI Analytical Systems uses data from SmartCube™ to compare the behavioral signature of a test compound to a database of behavioral signatures obtained using a large set of diverse reference compounds. (The composition of the database as well as validation of the method is further described in Roberds). In this way, the neuropharmacological effects of a test compound can be predicted by similarity to major classes of compounds, such as antipsychotics, anxiolytics and antidepressants.
The SmartCube™ system produces an activity signature indicating the probability that the activity of the test compound at the administered dose matches a given class of neuropharmacological agents. (See, e.g., Roberds, FIGS. 2 and 3). The test compound is simultaneously compared against multiple classes of agents; thus, a separate probability is generated for each behavioral effect measured (e.g., anxiolytic activity, analgesic activity, etc.). In Table 4, these probabilities are reported for each behavioral effect measured as follows:
Provided compounds were dissolved in a mixture of Pharmasolve™ (N-methyl-2-pyrrolidone), polyethylene glycol and propylene glycol, and were injected i.p. 15 min. before the behavioral test. For each compound, injections were administered at 3 different doses. For each behavioral effect measured, results for the most efficacious dose(s) are presented.
As to `Fc1ccc2c(c1)CCO[C@H]2[C@H]1CCCN1` [Compound I-12, (R)-2-((R)-6-fluoroisochroman-1-yl)pyrrolidine], the “AD: ADHD (probability that behavioral signature matches class)” value (shortened to “AD: ADHD”) is on record as “+ (LOQ ≤ + <5%)”, the “AG: analgesic (probability that behavioral signature matches class)” value (from here on “AG: analgesic”) is “++ (5% ≤ ++ <25%)”, the “AX: anxiolytic (probability that behavioral signature matches class)” value (from here on “AX: anxiolytic”) was “++ (5% ≤ ++ <25%)” and the “CE: cognitive enhancer (probability that behavioral signature matches class)” value (shortened to “CE: cognitive enhancer”) is listed as “+ (LOQ ≤ + <5%)”. The “DP: anti-depressant (probability that behavioral signature matches class)” value (“DP: anti-depressant” below) is listed as “++ (5% ≤ ++ <25%)”, the “HA: hallucinogen (probability that behavioral signature matches class)” value (shortened to “HA: hallucinogen”) was “+ (LOQ ≤ + <5%)”, the “MS: mood stabilizer (probability that behavioral signature matches class)” value (from here on “MS: mood stabilizer”) is “+ (LOQ ≤ + <5%)” and the “PS: anti-psychotic (probability that behavioral signature matches class)” value (“PS: anti-psychotic” below) was “++ (5% ≤ ++ <25%)”. For the same compound, the “SD: sedative hypnotic (probability that behavioral signature matches class)” value (from here on “SD: sedative hypnotic”) was “+ (LOQ ≤ + <5%)”, the “UN: uncharacterized CNS activity (probability that behavioral signature matches class)” value (from here on “UN: uncharacterized CNS activity”) was “++++ (50% ≤ ++++)” and the “XG: anxiogenic (probability that behavioral signature matches class)” value (“XG: anxiogenic” for short) is listed as “+ (LOQ ≤ + <5%)”.
For `Cc1ccc2c(c1)[C@H]([C@H]1CCCN1)OCC2` [Compound I-28, (R)-2-((R)-7-methylisochroman-1-yl)pyrrolidine], the “AD: ADHD” value is reported as “+ (LOQ ≤ + <5%)”, the “AG: analgesic” value is recorded as “++ (5% ≤ ++ <25%)”, the “AX: anxiolytic” value is given as “+++ (25% ≤ +++ <50%)” and the “CE: cognitive enhancer” value is given as “+ (LOQ ≤ + <5%)”. The “DP: anti-depressant” value is listed as “++ (5% ≤ ++ <25%)”, the “HA: hallucinogen” value was “+ (LOQ ≤ + <5%)”, the “MS: mood stabilizer” value is recorded as “+ (LOQ ≤ + <5%)” and the “PS: anti-psychotic” value is “++ (5% ≤ ++ <25%)”. Also, the “SD: sedative hypnotic” value was “+ (LOQ ≤ + <5%)”, the “UN: uncharacterized CNS activity” value is reported as “++ (5% ≤ ++ <25%)” and the “XG: anxiogenic” value was “+ (LOQ ≤ + <5%)”.
Turning to `Fc1ccc2c(c1)[C@H]([C@H]1CCCN1)OCCC2` [Compound I-109, (R)-2-((R)-8-fluoro-1,3,4,5-tetrahydrobenzo[c]oxepin-1-yl)pyrrolidine], the “AD: ADHD” value was “+ (LOQ ≤ + <5%)”, the “AG: analgesic” value is “++ (5% ≤ ++ <25%)”, the “AX: anxiolytic” value is listed as “++ (5% ≤ ++ <25%)” and the “CE: cognitive enhancer” value is “+ (LOQ ≤ + <5%)”. In addition, the “DP: anti-depressant” value is recorded as “+++ (25% ≤ +++ <50%)”, the “HA: hallucinogen” value is on record as “+ (LOQ ≤ + <5%)”, the “MS: mood stabilizer” value is on record as “++ (5% ≤ ++ <25%)” and the “PS: anti-psychotic” value is reported as “++ (5% ≤ ++ <25%)”. Further, the “SD: sedative hypnotic” value is on record as “++ (5% ≤ ++ <25%)”, the “UN: uncharacterized CNS activity” value was “++ (5% ≤ ++ <25%)” and the “XG: anxiogenic” value is reported as “+ (LOQ ≤ + <5%)”.
`Fc1cccc2c1[C@H]([C@H]1CCCN1)OCC2` [Compound I-4, (R)-2-((R)-8-fluoroisochroman-1-yl)pyrrolidine]: the “AD: ADHD” value is “+ (LOQ ≤ + <5%)”, the “AG: analgesic” value was “++ (5% ≤ ++ <25%)”, the “AX: anxiolytic” value is reported as “+++ (25% ≤ +++ <50%)” and the “CE: cognitive enhancer” value is on record as “++ (5% ≤ ++ <25%)”. In addition, the “DP: anti-depressant” value is on record as “++ (5% ≤ ++ <25%)”, the “HA: hallucinogen” value is recorded as “+ (LOQ ≤ + <5%)”, the “MS: mood stabilizer” value is recorded as “+ (LOQ ≤ + <5%)” and the “PS: anti-psychotic” value is recorded as “++ (5% ≤ ++ <25%)”. The “SD: sedative hypnotic” value is “+ (LOQ ≤ + <5%)”, the “UN: uncharacterized CNS activity” value is on record as “+ (LOQ ≤ + <5%)” and the “XG: anxiogenic” value is given as “+ (LOQ ≤ + <5%)”.
For `Fc1ccc2c(c1)[C@H](F)CO[C@H]2[C@@H]1CCN1` [Compound I-135, (2S)-2-((1R)-4,6-difluoroisochroman-1-yl)azetidine], the “AD: ADHD” value is “+ (LOQ ≤ + <5%)”, the “AG: analgesic” value is reported as “++ (5% ≤ ++ <25%)”, the “AX: anxiolytic” value was “++ (5% ≤ ++ <25%)” and the “CE: cognitive enhancer” value is reported as “++ (5% ≤ ++ <25%)”. The “DP: anti-depressant” value is on record as “++ (5% ≤ ++ <25%)”, the “HA: hallucinogen” value is “+ (LOQ ≤ + <5%)”, the “MS: mood stabilizer” value is given as “++ (5% ≤ ++ <25%)” and the “PS: anti-psychotic” value is “+++ (25% ≤ +++ <50%)”. For the same compound, the “SD: sedative hypnotic” value is on record as “++ (5% ≤ ++ <25%)”, the “UN: uncharacterized CNS activity” value is recorded as “++ (5% ≤ ++ <25%)” and the “XG: anxiogenic” value is “+ (LOQ ≤ + <5%)”.
For `CC1(C)CN[C@@H]([C@@H]2OCCc3ccccc32)C1` [Compound I-61, (R)-2-((R)-isochroman-1-yl)-4,4-dimethylpyrrolidine], the “AD: ADHD” value is “+ (LOQ ≤ + <5%)”, the “AG: analgesic” value is “+++ (25% ≤ +++ <50%)”, the “AX: anxiolytic” value is “++ (5% ≤ ++ <25%)” and the “CE: cognitive enhancer” value is given as “+ (LOQ ≤ + <5%)”. Moreover, the “DP: anti-depressant” value is on record as “++ (5% ≤ ++ <25%)”, the “HA: hallucinogen” value is “+ (LOQ ≤ + <5%)”, the “MS: mood stabilizer” value is recorded as “++ (5% ≤ ++ <25%)” and the “PS: anti-psychotic” value is “++ (5% ≤ ++ <25%)”. Moreover, the “SD: sedative hypnotic” value was “+ (LOQ ≤ + <5%)”, the “UN: uncharacterized CNS activity” value is given as “+ (LOQ ≤ + <5%)” and the “XG: anxiogenic” value is listed as “++ (5% ≤ ++ <25%)”.
As to `Fc1ccc2c(c1)CCCO[C@H]2[C@H]1CCCN1` [Compound I-113, (R)-2-((R)-7-fluoro-1,3,4,5-tetrahydrobenzo[c]oxepin-1-yl)pyrrolidine], the “AD: ADHD” value is on record as “+ (LOQ ≤ + <5%)”, the “AG: analgesic” value is on record as “++ (5% ≤ ++ <25%)”, the “AX: anxiolytic” value is recorded as “++ (5% ≤ ++ <25%)” and the “CE: cognitive enhancer” value is reported as “++ (5% ≤ ++ <25%)”. Moreover, the “DP: anti-depressant” value was “+++ (25% ≤ +++ <50%)”, the “HA: hallucinogen” value is recorded as “+ (LOQ ≤ + <5%)”, the “MS: mood stabilizer” value is reported as “+ (LOQ ≤ + <5%)” and the “PS: anti-psychotic” value was “++ (5% ≤ ++ <25%)”. Also, the “SD: sedative hypnotic” value is given as “++ (5% ≤ ++ <25%)”, the “UN: uncharacterized CNS activity” value is “+ (LOQ ≤ + <5%)” and the “XG: anxiogenic” value is reported as “+ (LOQ ≤ + <5%)”.
